The record followed here is patent US10253081B2, “Glucagon analogues” (Zealand Pharma A/S, priority 2012, dated 2019).

The target in experiment [1] is T1, human glucagon receptor (Glucagon-R) (Homo sapiens, UniProt P47871).
T1 construct: expressed in transfected cells
As to the kind of experiment: Glucagon receptor efficacy assay (cAMP AlphaScreen, CHO cells). The experiment is classed as cell-based. The conditions noted are these: Table 1A; CHO cells expressing human Glucagon-R, cAMP; read-out: EC50 hGCGR CHO-K1. Summed up:
(§1)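 Stably transfected CHO clones expressing human GLP-1R or glucagon receptor were treated with increasing peptide concentrations for 15 min at room temperature in KRBH containing 0.1 mM IBMX. After lysis, cAMP was quantified by AlphaScreen; EC50 and efficacy relative to GLP-1 or glucagon reference came from curve fitting.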
(Alpha assays give light when donor and acceptor beads are brought close together.)

The target of experiment [2] is T2, human glucagon-like peptide 1 receptor (GLP-1R) (Homo sapiens, UniProt P43220).
T2 construct: expressed in transfected cells
T2 sequence (P43220 24-463): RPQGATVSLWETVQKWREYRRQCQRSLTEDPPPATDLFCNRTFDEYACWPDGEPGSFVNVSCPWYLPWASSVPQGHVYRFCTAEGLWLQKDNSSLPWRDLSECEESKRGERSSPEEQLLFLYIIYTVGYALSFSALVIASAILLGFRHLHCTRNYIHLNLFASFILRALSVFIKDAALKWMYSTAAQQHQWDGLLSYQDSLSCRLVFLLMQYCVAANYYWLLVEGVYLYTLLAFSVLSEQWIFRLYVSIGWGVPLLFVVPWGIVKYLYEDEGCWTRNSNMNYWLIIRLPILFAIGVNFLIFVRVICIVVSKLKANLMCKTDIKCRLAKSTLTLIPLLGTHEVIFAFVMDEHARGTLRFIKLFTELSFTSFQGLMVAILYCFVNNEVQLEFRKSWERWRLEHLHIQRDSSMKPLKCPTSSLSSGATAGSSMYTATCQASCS
As to the kind of experiment: GLP-1 receptor efficacy assay (cAMP AlphaScreen, CHO cells). The experiment is classed as cell-based. The following applies: Table 1A; for EC50: CHO cells expressing human GLP-1-R, cAMP, read-out: EC50 hGLP-1R CHO-K1; for Ratio GLP-1/Glucagon: EC50 [GLP-1R]/EC50 [Glucagon-R]. Summed up:
as §1

For experiment [3], the target named is T3, endogenous GLP-1 receptors (Mus musculus, UniProt O35659).
T3 construct: Agonistic activity of the test compounds on endogenous GLP-1 receptors; endogenous in cells
T3 sequence (O35659 22-463): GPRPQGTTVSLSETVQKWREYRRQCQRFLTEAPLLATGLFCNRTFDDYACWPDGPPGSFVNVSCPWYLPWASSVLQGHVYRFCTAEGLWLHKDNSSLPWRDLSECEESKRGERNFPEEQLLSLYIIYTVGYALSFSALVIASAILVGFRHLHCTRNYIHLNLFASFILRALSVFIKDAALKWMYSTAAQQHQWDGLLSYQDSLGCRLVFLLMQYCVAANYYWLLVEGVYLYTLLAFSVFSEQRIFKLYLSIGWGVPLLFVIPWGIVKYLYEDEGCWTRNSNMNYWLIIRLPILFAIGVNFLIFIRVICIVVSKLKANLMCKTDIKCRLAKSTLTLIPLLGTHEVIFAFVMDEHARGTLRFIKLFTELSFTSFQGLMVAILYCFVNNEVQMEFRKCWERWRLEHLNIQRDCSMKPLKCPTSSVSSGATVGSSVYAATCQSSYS
The experiment can be described thus: Agonistic activity on endogenous GLP-1 receptor (cAMP, murine insulinoma cell line). The experiment is classed as cell-based. The conditions noted are these: intracellular cAMP, 15 minutes at 26° C.; read-out: EC50 GLP-1R (murine insulinoma cells). In a few lines: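 Murine insulinoma cells were exposed 15 min at 26° C in KRBH with 0.1% DMSO to compound or GLP-1 ([…]), then cAMP was measured by AlphaScreen against a standard curve, in quadruplicate. pEC50 came from curve fits; % CTL was normalised to the maximal GLP-1 cAMP response.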

The nature of experiment [4]: Oral glucose tolerance test (OGTT). The experiment is classed as in vivo, C57BL/6J mice. The following applies: blood glucose AUC 0-120 min, 10 nmol/kg s.c. 4 h before oral glucose 2 g/kg. Summed up:
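Male C57BL/6J mice (n=7) were fasted for 10 h and given peptide at 10 nmol/kg s.c. in phosphate-buffered saline 4 h before an oral glucose bolus of 2 g/kg; controls got vehicle. Tail-blood glucose was read by glucometer up to 120 min, and AUC was computed by the trapezoidal rule without baseline correction.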

*1 amine or outer side, *2 acyl side, *3 side chain or, on linkers, in order; H or OH if unused. Where a SMILES comes first, the peptide text is derived from it. Side-chain parts run from the residue outwards. [ ]: non-standard residue; d: D form. The star is where a group is joined. γGlu = O=C(O)[C@H](CCC(=O)[*:2])N[*:1]; Palmitoyl = CCCCCCCCCCCCCCCC(=O)*; Aib = CC(C)(N)C(=O)O

By EC50 is commonly meant the concentration at which the effect is half-maximal.

T1 sequence (P47871 26-477): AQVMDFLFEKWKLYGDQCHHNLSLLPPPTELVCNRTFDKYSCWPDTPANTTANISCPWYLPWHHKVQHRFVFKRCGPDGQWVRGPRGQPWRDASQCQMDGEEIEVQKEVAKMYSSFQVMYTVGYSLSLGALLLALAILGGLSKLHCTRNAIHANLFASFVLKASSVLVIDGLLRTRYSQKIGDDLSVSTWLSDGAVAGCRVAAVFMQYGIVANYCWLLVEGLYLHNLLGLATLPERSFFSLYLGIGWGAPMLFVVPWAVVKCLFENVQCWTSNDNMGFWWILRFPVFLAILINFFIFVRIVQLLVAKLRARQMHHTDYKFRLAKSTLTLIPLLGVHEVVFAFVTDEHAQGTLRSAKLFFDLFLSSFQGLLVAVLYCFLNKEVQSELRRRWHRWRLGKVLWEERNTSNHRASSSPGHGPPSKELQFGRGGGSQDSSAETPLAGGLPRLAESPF

Consider `CCCCCCCCCCCCCCCC(=O)N[C@@H](CCC(=O)NCCCC[C@H](NC(=O)[C@H](CO)NC(=O)[C@H](CC(=O)O)NC(=O)[C@H](CC(C)C)NC(=O)[C@H](Cc1ccc(O)cc1)NC(=O)[C@H](CCCCN)NC(=O)[C@H](CO)NC(=O)[C@H](Cc1ccc(O)cc1)NC(=O)[C@H](CC(=O)O)NC(=O)[C@H](CO)NC(=O)[C@@H](NC(=O)[C@H](Cc1ccccc1)NC(=O)[C@@H](NC(=O)CNC(=O)[C@H](CCC(N)=O)NC(=O)[C@H](CO)NC(=O)[C@@H](N)Cc1c[nH]cn1)[C@@H](C)O)[C@@H](C)O)C(=O)N[C@@H](C)C(=O)N[C@@H](C)C(=O)N[C@@H](Cc1c[nH]cn1)C(=O)N[C@@H](CC(=O)O)C(=O)N[C@@H](Cc1ccccc1)C(=O)N[C@H](C(=O)N[C@@H](CCC(=O)O)C(=O)N[C@@H](Cc1c[nH]c2ccccc12)C(=O)N[C@@H](CC(C)C)C(=O)N[C@@H](CC(C)C)C(=O)N[C@@H](CCCNC(=N)N)C(=O)O)C(C)C)C(=O)O` [Compound 9, H-HSQGTFTSDYSKYLDS-K(Hexadecanoyl-isoGlu)-AAHDFVEWLLR-OH] (H-HSQGTFTSDYSKYLDSK([γGlu-Palmitoyl])AAHDFVEWLLR-OH), for which the 50% effective concentration (EC50) in experiment [1] stood at 250 pM; in experiment [2], 350 pM; in experiment [3] it was 1020 pM. The “Ratio GLP-1/Glucagon” value in experiment [2] is listed as 1.40. Besides, the “AUC (% Ctrl)” value in experiment [4] turned out to be 57 % Ctrl.

For the molecule `CCCCCCCCCCCCCCCC(=O)N[C@@H](CCC(=O)NCCCC[C@H](NC(=O)[C@H](CO)NC(=O)[C@H](CC(=O)O)NC(=O)[C@H](CC(C)C)NC(=O)[C@H](Cc1ccc(O)cc1)NC(=O)[C@H](CCCNC(=N)N)NC(=O)[C@H](CO)NC(=O)[C@H](Cc1ccc(O)cc1)NC(=O)[C@H](CC(=O)O)NC(=O)[C@H](CO)NC(=O)[C@@H](NC(=O)[C@H](Cc1ccccc1)NC(=O)[C@@H](NC(=O)CNC(=O)[C@H](CCC(N)=O)NC(=O)[C@H](CO)NC(=O)[C@@H](N)Cc1c[nH]cn1)[C@@H](C)O)[C@@H](C)O)C(=O)N[C@@H](C)C(=O)N[C@@H](C)C(=O)N[C@@H](CCC(=O)O)C(=O)N[C@@H](CC(=O)O)C(=O)N[C@@H](Cc1ccccc1)C(=O)N[C@H](C(=O)N[C@@H](CCC(=O)O)C(=O)N[C@@H](Cc1c[nH]c2ccccc12)C(=O)N[C@@H](CC(C)C)C(=O)N[C@@H](CC(C)C)C(=O)N[C@@H](CCCNC(=N)N)C(=O)N[C@@H](C)C(N)=O)C(C)C)C(=O)O` [Compound 6, H-HSQGTFTSDYSRYLDS-K(Hexadecanoyl-isoGlu)-AAEDFVEWLLRA-NH2] (H-HSQGTFTSDYSRYLDSK([γGlu-Palmitoyl])AAEDFVEWLLRA-NH2), the EC50 in experiment [1] amounted to 460 pM; in experiment [2] it was 350 pM; in experiment [3], 1140 pM. For the same molecule, in experiment [2], the “Ratio GLP-1/Glucagon” value came to 0.76. Moreover, the “AUC (% Ctrl)” value in experiment [4] is reported as 50 % Ctrl.

Regarding `CCCCCCCCCCCCCCCC(=O)N[C@@H](CCC(=O)NCCCC[C@H](NC(=O)[C@H](CCC(=O)O)NC(=O)[C@H](CC(=O)O)NC(=O)[C@H](CC(C)C)NC(=O)[C@H](Cc1ccc(O)cc1)NC(=O)[C@H](CCCCN)NC(=O)[C@H](CO)NC(=O)[C@H](Cc1ccc(O)cc1)NC(=O)[C@H](CC(=O)O)NC(=O)[C@H](CO)NC(=O)[C@@H](NC(=O)[C@H](Cc1ccccc1)NC(=O)[C@@H](NC(=O)CNC(=O)[C@H](CCC(N)=O)NC(=O)C(C)(C)NC(=O)[C@@H](N)Cc1c[nH]cn1)[C@@H](C)O)[C@@H](C)O)C(=O)N[C@@H](C)C(=O)N[C@@H](C)C(=O)N[C@@H](CCCCN)C(=O)N[C@@H](CC(=O)O)C(=O)N[C@@H](Cc1ccccc1)C(=O)N[C@H](C(=O)N[C@@H](CCC(=O)O)C(=O)N[C@@H](Cc1c[nH]c2ccccc12)C(=O)N[C@@H](CC(C)C)C(=O)N[C@@H](CC(C)C)C(=O)N[C@@H](CO)C(=O)N[C@@H](C)C(N)=O)[C@@H](C)CC)C(=O)O` [Compound 4, H-H-Aib-QGTFTSDYSKYLDE-K(Hexadecanoyl-isoGlu)-AAKDFIEWLLSA-NH2] (H-H[Aib]QGTFTSDYSKYLDEK([γGlu-Palmitoyl])AAKDFIEWLLSA-NH2), the EC50 in experiment [1] was determined as 1560 pM; in experiment [2] it was 380 pM; in experiment [3] it was 950 pM. In experiment [2], the “Ratio GLP-1/Glucagon” value is given as 0.24. In addition, the “AUC (% Ctrl)” value in experiment [4] came to 65 % Ctrl.

For the molecule `CCCCCCCCCCCCCCCC(=O)N[C@@H](CCC(=O)NCCCC[C@H](NC(=O)[C@H](CO)NC(=O)[C@H](CC(=O)O)NC(=O)[C@H](CC(C)C)NC(=O)[C@H](Cc1ccc(O)cc1)NC(=O)[C@H](CCCCN)NC(=O)[C@H](CO)NC(=O)[C@H](Cc1ccc(O)cc1)NC(=O)[C@H](CC(=O)O)NC(=O)[C@H](CO)NC(=O)[C@@H](NC(=O)[C@H](Cc1ccccc1)NC(=O)[C@@H](NC(=O)CNC(=O)[C@H](CCC(N)=O)NC(=O)C(C)(C)NC(=O)[C@@H](N)Cc1c[nH]cn1)[C@@H](C)O)[C@@H](C)O)C(=O)N[C@@H](C)C(=O)N[C@@H](C)C(=O)N[C@@H](Cc1c[nH]cn1)C(=O)N[C@@H](CC(=O)O)C(=O)N[C@@H](Cc1ccccc1)C(=O)N[C@H](C(=O)N[C@@H](CCC(=O)O)C(=O)N[C@@H](Cc1c[nH]c2ccccc12)C(=O)N[C@@H](CC(C)C)C(=O)N[C@@H](CC(C)C)C(=O)N[C@@H](CO)C(=O)O)C(C)C)C(=O)O` [Compound 1, H-H-Aib-QGTFTSDYSKYLDS-K(Hexadecanoyl-isoGlu)-AAHDFVEWLLS-OH] (H-H[Aib]QGTFTSDYSKYLDSK([γGlu-Palmitoyl])AAHDFVEWLLS-OH), the concentration giving a half-maximal response (EC50) in experiment [1] was determined as 900 pM; in experiment [2] it was 540 pM; in experiment [3], 1470 pM. The “Ratio GLP-1/Glucagon” value in experiment [2] amounted to 0.60. Besides, in experiment [4], the “AUC (% Ctrl)” value turned out to be 66 % Ctrl.
